Data set [1] can be described thus: toxicity evaluation in mice (body weight, serum chemistry, organ histology). Format: in vivo, mouse. Here is the method: To determine whether ESK981-mediated growth inhibition translated into anti-tumor effects, the efficacy of ESK981 in blocking prostate cancer growth in mouse xenograft models was assessed. VCaP cells were chosen for initial experiments because this cell line harbors the TMPRSS2:ERG gene fusion and AR amplification, both of which are frequent molecular aberrations in patients with advanced CRPC^29. A castration-resistant VCaP tumor-bearing xenograft mouse model was generated to mimic disease progression in human patients (FIG. 3a).
Whole blood was collected using BD Microtainer SST tubes, and serum was isolated by centrifugation at 7000 rpm for 10 minutes. Sera were submitted to the University of Michigan ULAM Pathology Cores for Animal Research for liver and renal chemistry analysis.

Data set [2] deals with advanced, relapsed, or refractory solid tumors. As to conditions: cited from earlier work.
The target of another data set is PIKfyve (Homo sapiens, UniProt Q9Y2I7). The experiment in a line: lipid kinase competition assay (scanLIPID panel, 22 lipid kinases). Type of data set: binding. Also on record: purchased DiscoveRX (KINOMEscan scanLIPID panel; KdELECT). To be noted: 1 μM ESK981, only target among 22 phosphoinositide kinases. Here is the method:
Lipid kinase competition assays for 22 lipid kinases, including clinically-relevant mutants, were performed using DiscoveRX KINOEscan® platform scanLIPID® panel. Detailed information is described on the DiscoveRX website (https://www.discoverx.com/technologies-platforms/competitive-binding-technology/kinomescan-technology-platform).

Chain of PIKfyve (Q9Y2I7 whole entry): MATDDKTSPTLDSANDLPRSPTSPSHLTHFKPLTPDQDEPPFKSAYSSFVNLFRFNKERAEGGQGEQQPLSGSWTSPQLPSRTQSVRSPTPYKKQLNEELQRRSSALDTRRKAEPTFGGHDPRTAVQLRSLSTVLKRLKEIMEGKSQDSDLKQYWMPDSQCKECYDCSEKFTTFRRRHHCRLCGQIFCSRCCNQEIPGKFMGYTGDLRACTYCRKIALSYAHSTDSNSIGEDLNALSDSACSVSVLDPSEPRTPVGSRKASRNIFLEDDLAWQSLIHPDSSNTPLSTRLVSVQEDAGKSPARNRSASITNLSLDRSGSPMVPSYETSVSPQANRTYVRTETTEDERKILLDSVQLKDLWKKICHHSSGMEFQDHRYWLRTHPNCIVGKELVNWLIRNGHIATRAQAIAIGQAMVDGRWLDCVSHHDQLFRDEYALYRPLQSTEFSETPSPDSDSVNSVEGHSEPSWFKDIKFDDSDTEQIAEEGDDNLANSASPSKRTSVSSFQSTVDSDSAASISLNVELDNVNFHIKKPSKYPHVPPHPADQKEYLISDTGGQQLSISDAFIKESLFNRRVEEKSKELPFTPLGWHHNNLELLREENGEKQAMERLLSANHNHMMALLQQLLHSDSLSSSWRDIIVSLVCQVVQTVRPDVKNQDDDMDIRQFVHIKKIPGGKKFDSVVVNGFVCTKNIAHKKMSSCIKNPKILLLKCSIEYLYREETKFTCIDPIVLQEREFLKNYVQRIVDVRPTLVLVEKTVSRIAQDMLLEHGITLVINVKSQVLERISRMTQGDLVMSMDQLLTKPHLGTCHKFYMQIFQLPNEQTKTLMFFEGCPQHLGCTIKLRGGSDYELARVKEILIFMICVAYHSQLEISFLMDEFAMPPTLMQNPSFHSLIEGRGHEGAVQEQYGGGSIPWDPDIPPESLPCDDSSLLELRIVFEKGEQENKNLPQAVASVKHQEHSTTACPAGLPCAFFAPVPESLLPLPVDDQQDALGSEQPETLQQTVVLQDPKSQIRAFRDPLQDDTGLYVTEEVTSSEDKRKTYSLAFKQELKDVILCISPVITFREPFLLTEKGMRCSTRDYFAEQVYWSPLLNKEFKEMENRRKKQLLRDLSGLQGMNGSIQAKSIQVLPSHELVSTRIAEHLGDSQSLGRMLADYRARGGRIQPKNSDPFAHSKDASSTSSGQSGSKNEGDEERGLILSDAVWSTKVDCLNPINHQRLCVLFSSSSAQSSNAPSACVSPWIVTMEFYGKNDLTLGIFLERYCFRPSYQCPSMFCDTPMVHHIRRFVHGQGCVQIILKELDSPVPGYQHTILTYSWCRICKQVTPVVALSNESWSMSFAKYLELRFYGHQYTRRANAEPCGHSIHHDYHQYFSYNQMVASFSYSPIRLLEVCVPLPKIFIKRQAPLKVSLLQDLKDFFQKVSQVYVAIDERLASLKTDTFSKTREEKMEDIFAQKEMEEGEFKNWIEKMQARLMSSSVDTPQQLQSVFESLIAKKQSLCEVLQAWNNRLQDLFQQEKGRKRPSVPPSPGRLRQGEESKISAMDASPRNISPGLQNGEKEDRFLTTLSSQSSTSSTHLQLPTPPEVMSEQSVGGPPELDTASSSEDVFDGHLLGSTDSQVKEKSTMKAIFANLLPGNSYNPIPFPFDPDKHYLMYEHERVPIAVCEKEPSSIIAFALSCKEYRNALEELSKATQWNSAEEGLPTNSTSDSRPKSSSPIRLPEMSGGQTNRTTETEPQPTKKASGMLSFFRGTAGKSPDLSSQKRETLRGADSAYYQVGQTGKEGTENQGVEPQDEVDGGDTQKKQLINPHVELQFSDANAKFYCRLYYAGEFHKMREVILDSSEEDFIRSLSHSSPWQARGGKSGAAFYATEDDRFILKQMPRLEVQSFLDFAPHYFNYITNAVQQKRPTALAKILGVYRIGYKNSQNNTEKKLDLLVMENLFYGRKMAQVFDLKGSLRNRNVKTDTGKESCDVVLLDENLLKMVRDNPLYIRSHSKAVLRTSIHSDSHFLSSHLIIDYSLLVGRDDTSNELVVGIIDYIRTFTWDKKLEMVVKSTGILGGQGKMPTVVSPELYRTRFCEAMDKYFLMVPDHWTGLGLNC

For the compound `CC(C)Cn1c2ccc(Nc3ncccn3)cc2c2c3c(c4c(c21)CCc1nn(C)cc1-4)C(=O)NC3` [ESK981, 13-isobutyl-4-methyl-10-(pyrimidin-2-ylamino)-1,2,4,7,8,13-hexahydro-6H-indazolo[5,4-a]pyrrolo[3,4-c]carbazol-6-one], the “tissue vacuolization in major organs” value in data set [1] (H&E staining of organs of ESK981-treated mice) is “no major organs were found to have the same tissue vacuolization morphology”. Further, the body weight loss entry in data set [1] (VCaP tumor-bearing mice) is given as “within the range of tolerance”. Besides, the tolerability in mice result in data set [1] (body weight, liver and kidney serum chemistry, histology of major organs) is reported as “well-tolerated”. For the same compound, the “evaluable patients achieving stable disease” value in data set [2] (measured at ≥6 weeks of ESK981 treatment) is reported as 51%. For the same compound, in data set [2] (patients with advanced, relapsed, or refractory solid tumors), the “safety, pharmacokinetic and pharmacodynamic profiles” value was “favorable safety, pharmacokinetic, and pharmacodynamic profiles”. For the same compound, the “competition in affinity binding screen” value on PIKfyve is “completely competed away”.

The record behind these values is US20230364084A1, “METHODS FOR PREVENTING OR TREATING CONDITIONS RELATED TO PIKFYVE ACTIVITY” (The Regents of the University of Michigan, priority 2020, published 2023).
